According to paper PMC11507441, “Oilseed Cakes: A Promising Source of Antioxidant, and Anti-Inflammatory Agents—Insights from Lactuca sativa” (International Journal of Molecular Sciences, 2024):
In brackets after ≈: the same amount, converted by molar mass.

Key:
[1] = test system: S. aureus; assay: Antimicrobial screening, zone of inhibition; format: cell-based; conditions: for S. aureus %Activity Index: 1 mg/mL
Method: (§1) The procedure was performed according to […] et al.. A comparison of the extract's zone of inhibition to that of a reference antibiotic's activity index was determined using the following equation:Activity index = (the inhibition zone of extract/the inhibition zone of the standard) × 100

[2] = test system: E. coli; assay: Antimicrobial screening, zone of inhibition; format: cell-based; conditions: for E. coli %Activity Index: 1 mg/mL; for zone of inhibition at 1000 µg/mL: Escherichia coli, isolated compounds 1 mg/mL, read-out: E. coli Diameter of Inhibition Zone (mm)
Method: as §1

[3] = ABTS antioxidant assay; format: biochemical; set-up: IC50 in ABTS assay: unit not given beside the values
Method: The experiment was performed in triplicate according to Zaky et al.. The absorbance of control of the resulting green-blue solution (ABTS* radical solution) was recorded at λ max 734 nm.

[4] = test system: P. aeruginosa; assay: Antimicrobial screening, zone of inhibition; format: cell-based; conditions: Table 1; for zone of inhibition at 1000 µg/mL: Pseudomonas aeruginosa, isolated compounds 1 mg/mL, read-out: P. aeruginosa Diameter of Inhibition Zone (mm)
Method: The procedure was performed according to Stylianakis et al.. A comparison of the extract’s zone of inhibition to that of a reference antibiotic’s activity index was determined using the following equation:Activity index = (the inhibition zone of extract/the inhibition zone of the standard) × 100

[5] = test system: C. albicans; assay: Antimicrobial screening, zone of inhibition; format: cell-based; conditions: for zone of inhibition at 1000 µg/mL: Candida albicans, isolated compounds 1 mg/mL, read-out: C. Albicans Diameter of Inhibition Zone (mm); for C. Albicans %Activity Index: 1 mg/mL
Method: as §1

[6] = test system: MCF-7 cancer cell line; assay: Cytotoxic activity (MTT assay); format: cell-based
Method: (§2) The HPLC was performed in the Institute for Plant Biology, TU Braunschweig, using a Young Lin quaternary pump, vacuum degasser, column oven (40 °C), diode array detector (YL9160 PDA), and a Midas Spark Holland autosampler. UV spectra (λ max) were measured in the central laboratory of the Faculty of Pharmaceutical Science at Mansoura University using spectroscopic methanol with an ultraviolet-visible spectrophotometer (Shimadzu 1601 PC, version TCC-240A, Kyoto, Japan). The NMR unit of Mansoura University’s Faculty of Pharmacy obtained nuclear magnetic resonance spectra (^1H-NMR, ^13C-NMR, DEPT-Q, APT, HSQC, and HMBC) using a Bruker DRX 600 NMR spectrometer (600 and 150 MHz for ^1H and ^13C-NMR, respectively) and with the Bruker Corporation Avance III 400 spectrometer, which measures ^1H and ^13C-NMR at 400 and 100 MHz, respectively. The types of solvents that are used are CDCl3, CD3OD, and DMSO-d6. For normal phase chromatography, silica gel G 60–230 mesh (Merck, Darmstadt, Germany) was packed using a wet or dry method in the specified solvent. The purchase of Normal Human lung fibroblast (WI-38), hepatic cancer cell lines (HePG-2), and mammary gland (MCF-7) cell lines from ATCC was made possible by the Holding firm for biological goods and vaccines (VACSERA), which is based in Cairo, Egypt.
(§3) Using the MTT test, the inhibitory effects of substances on cell growth were ascertained using the cell lines compared to normal lung fibroblast cells (WI-38). The selectivity index was calculated via the Selectivity index (SI) equation: SI equals IC50 normal/IC50 cancer.

[7] = test system: HepG-2 cancer cell line; assay: Cytotoxic activity (MTT assay); format: cell-based
Method: as §2, §3

[8] = Cytotoxic activity (MTT assay), normal cells; format: cell-based; conditions: human
Method: as §2, §3

[9] = Table S1, relative to ampicillin standard
[10] = Table S1, extracts and fractions 1 mg/mL
[11] = Table 1, relative to clotrimazole
[12] = Table 1, relative to ciprofloxacin
[13] = IC50 normal (WI-38)/IC50 cancer

In the case of `CC1(C)S[C@@H]2[C@H](NC(=O)[C@H](N)c3ccccc3)C(=O)N2[C@H]1C(=O)O` [Ampicillin, ampicillin, reference compound], the “S. aureus %Activity Index” value [1, 9] is reported as 100%, the “S. aureus Diameter of inhibition zone (mm)” value [1, 10] is reported as 22.87±0.15 mm and the “E. coli %Activity Index” value [2, 9] is reported as 100%. The “E. coli Diameter of inhibition zone (mm)” value [2, 10] was 23.9 ± 0.15 mm.

With `O=C1O[C@H]([C@@H](O)CO)C(O)=C1O` [Ascorbic acid] the “IC50 in ABTS assay” value ([3]; fractions of lettuce seedcake extract, unit not given) was 29.47 ± 0.17 and the “% inhibition in ABTS assay” value ([3]; seed cakes' methanolic extract at 1 mg/mL) was 88.1%.

Molecule `O=C(O)c1cn(C2CC2)c2cc(N3CCNCC3)c(F)cc2c1=O` [Ciprofloxacin, ciprofloxacin, reference compound] has a zone of inhibition at 1000 µg/mL [4] of 22.87 ± 0.15 mm and a zone of inhibition at 1000 µg/mL ([2]; Table 1) of 26 ± 0.3 mm.

With `Clc1ccccc1C(c1ccccc1)(c1ccccc1)n1ccnc1` [Clotrimazole, clotrimazole, reference compound] the zone of inhibition at 1000 µg/mL ([5]; Table 1) was 26.9 ± 0.1 mm, the “C. Albicans %Activity Index” value [5, 11] was 100% and the “C. Albicans %Activity Index” value ([5]; Table S1, relative to clotrimazole standard) was 100%. For the same molecule, the “C. Albicans Diameter of inhibition zone (mm)” value [5, 10] was 25.9±0.1 mm.

For `O=c1cc(-c2ccc(O)c(O)c2)oc2cc(O)cc(O)c12` [Compound 2, luteolin], the zone of inhibition at 1000 µg/mL [4] was 12.9 ± 0.1 mm, the “P. aeruginosa %Activity Index” value ([4]; 1 mg/mL, relative to ciprofloxacin) was 56.6% and the zone of inhibition at 1000 µg/mL ([1]; Staphylococcus aureus, Table 1, isolated compounds 1 mg/mL, read-out: S. aureus Diameter of Inhibition Zone (mm)) was 17 ± 0.1 mm. The “S. aureus %Activity Index” value [1, 12] was 71.7%, the zone of inhibition at 1000 µg/mL ([5]; Table 1) was 10.7 ± 0.15 mm and the “C. Albicans %Activity Index” value [5, 11] was 40.5%. The zone of inhibition at 1000 µg/mL ([2]; Table 1) was 9.8 ± 0.2 mm, the “E. coli %Activity Index” value [2, 12] was 37.8% and the IC50 ([6]; Homo sapiens, MCF7, read-out: In Vitro Cytotoxicity IC50 (µg/mL) MCF-7) was 11.6 ± 0.9 µg/mL (≈ 40.6 µM). For the same molecule, the “Selectivity Index MCF-7” value [6, 13] was 5.1, the IC50 ([7]; Homo sapiens, HepG2, read-out: In Vitro Cytotoxicity IC50 (µg/mL) HepG-2) was 19.5 ± 1.3 µg/mL (≈ 68.1 µM) and the “Selectivity Index HepG2” value [7, 13] was 3. The IC50 [8] was 59.3 ± 3.2 µg/mL (≈ 207 µM).
